US20250235429A1, “TREATMENT OF DISEASES VIA ADMINISTRATION OF BUNTANETAP AND AN ANTIDIABETIC AGENT” (ANNOVIS BIO, INC., priority 2024, published 2025)

How the values were obtained:
[1] = in vivo; cited from earlier work
[2] = test system: APP/PS1 transgenic mice; test: 2-day radial arm water maze (RAWM), spatial memory; format: in vivo
Method: (§1) Animals: Heterozygous double transgenic mice expressing both human APP (K670N:M671L) and human PS1 (M146L) (line 6.2) and their wild-type non-transgenic littermates, both males and females, were used for these experiments. They were obtained by a breeding colony maintained at the animal facility of Columbia University. They were genotyped through PCR on tail samples. Animals were injected i.p. from the age of […] for 1 month prior to starting behavioral assessment which lasted for 2 weeks during which treatment continued. Behavioral assessment examined spatial and associative memory. Finally, mice were sacrificed for electrophysiological assessment of synaptic function.
(§2) Mice were coded to blind investigators with respect to genotype and treatment. Results were expressed with Standard Error of the Mean (SEM). Level of significance was set for p<0.05. Results were analyzed by ANOVA analysis with post-hoc correction with the combination or genotype as main effect. Experiments were designed in a balanced fashion, and mice were trained and tested at each of the different conditions in 3 or 4 separate experiments.
Mice were i.p. injected with the drug from the age of 8 weeks prior to plaque appearance until behavioral assessment that started at 12 weeks of age and lasted for 2 weeks.
Spatial memory was studied with the 2-day radial arm water maze (RAWM) test. The task is a hybrid of the Morris Water Maze (MWM) and the radial arm land maze. The motivation for the animals is immersion in water. The mouse needs to swim in 6 alleys (arms) radiating from a central area until it finds a hidden (submerged) platform at the end of one of the arms, based on visual cues placed in the room. In the old RAWM version of the task, the goal arm varies from day to day, requiring 21 days of training in wild-type mice to reach the learning criterion. In the new version of the task, the goal arm is kept constant for all trials, with a different start arm on successive trials, such that the learning criterion will be reached in 2 days. The first day of the protocol was a training day. Mice were trained to identify the platform location by alternating between a visible and a hidden platform in a goal arm. The final 3 trials on day 1 and all 15 trials on day 2 used a hidden escape platform to force mice to use spatial cues to identify the location of the goal arm. To avoid learning limitations imposed by exhausting practice and to avoid fatigue that may result from consecutive trials, spaced practice training was established by running the mice in cohorts of 4 and alternating different cohorts through the 15 training trials over 3 hours testing periods each day. On day 1, a visible platform was laced in a goal location. Mouse 1 of cohort 1 was gently placed in the pool near the perimeter of the wall of the first start arm (specified on a score sheet) and facing the center of the pool. The number of incorrect arm entries (entries in arms with no platform) was counted. If the animal enters the incorrect arm it was gently pulled back to the start arm. Each trial lasted up to 1 min. Failure to select an arm after 15 sec was counted as an error and the mouse was returned to the start arm. After 1 min, if the platform had not been located, the mouse was guided gently through the water by placing a hand behind it to direct it towards the platform. The mouse rested on the platform for 15 sec. After completing the trial, the mouse was removed from the pool, gently towel dried and placed back into its cage under a heat lamp. The goal platform location was different for each mouse. […] After each mouse from cohort 1 completed six alternating trials between visible and hidden platforms, the mice were left to rest under a heating source, and mice from the second cohort were tested in the same way.

[3] = test system: hippocampal slices APP/PS1 transgenic mice; test: Electrophysiological study: long-term potentiation (LTP) in hippocampal slices; format: in vivo
Method: as §1, §2
Mice were i.p. injected with the drug from the age of 8 weeks prior to plaque appearance until euthanasia for collecting slices at the age of 14-16 weeks. The treatment with Buntanetap was daily, whereas the treatment with dulaglutide was twice a week.
Electrophysiological analysis was performed on 400 μm hippocampal slices, cut with a tissue chopper and maintained in an interface chamber at 29° C. for 90 min prior to recording. Briefly, CA1 fEPSPs were recorded by placing both the stimulating and the recording electrodes in CA1 stratum radiatum. Basal synaptic transmission was assayed, either by plotting the stimulus voltages against slopes of fEPSP, or by plotting the peak amplitude of the fiber volley against the slope of the fEPSP. For LTP experiments, a 15 min baseline was recorded every min at an intensity that evokes a response ˜35% of the maximum evoked response. LTP was induced using θ-burst stimulation (4 pulses at 100 Hz, with the bursts repeated at 5 Hz and each tetanus including 3 ten-burst trains separated by 15 see). Data was subjected to statistical analyses to determine the effects of combination on inhibiting synaptic dysfunction.

[4] = test system: APP/PS1 transgenic mice; test: Contextual fear conditioning (FC), associative memory; format: in vivo; conditions: Buntanetap 1 mg/Kg and/or dulaglutide 0.1 mg/Kg
Method: as §1
Mice were coded to blind investigators with respect to genotype and treatment. Results were expressed with Standard Error of the Mean (SEM). […] Results were analyzed by ANOVA analysis with post-hoc correction with the combination or genotype as main effect. […]
The combination effect on associative memory was assessed through fear conditioning (FC). […] Freezing behavior, defined as the absence of movements except for that needed for breathing, was scored using Noldus software. Contextual fear learning, a type of memory for which hippocampal function is indispensable, was evaluated 24 hrs after training by measuring freezing responses for 5 min in the same chamber where the mice have been trained. […]

[5] = APP/PS1 mice, Buntanetap 1 mg/Kg and/or dulaglutide 0.1 mg/Kg

Substance | onset [1] | peak concentration occurs after administration [1] [h] | % Improvement (RAWM errors) ([2]; APP/PS1, dulaglutide 0.1 mg/kg) [%] | Meran Number of Errors (RAWM) ([2]; APP/PS1, dulaglutide 0.1 mg/kg) | % Improvement (RAWM errors) ([2]; APP/PS1, dulaglutide 0.3 mg/kg) [%] | Meran Number of Errors (RAWM) ([2]; APP/PS1, dulaglutide 0.3 mg/kg) | % Improvement (RAWM errors) ([2]; APP/PS1, dulaglutide 0.6 mg/kg) [%] | Meran Number of Errors (RAWM) ([2]; APP/PS1, dulaglutide 0.6 mg/kg) | impairment of short-term spatial memory measured through the 2-day radial arm water maze (RAWM) [2, 5] | % Improvement (Residual Potential) ([3]; APP/PS1, dulaglutide 0.1 mg/kg) [%] | Residual Potential (mean) ([3]; APP/PS1, dulaglutide 0.1 mg/kg i.p. twice a week) | % Improvement (Residual Potential) ([3]; APP/PS1, dulaglutide 0.3 mg/kg) [%] | Residual Potential (mean) ([3]; APP/PS1, dulaglutide 0.3 mg/kg i.p. twice a week) | % Improvement (Residual Potential) ([3]; APP/PS1, dulaglutide 0.6 mg/kg) [%] | Residual Potential (mean) ([3]; APP/PS1, dulaglutide 0.6 mg/kg i.p. twice a week) | impairment of synaptic plasticity measured through Long-term potentiation (LTP) [3, 5] | impairment of associative memory measured through contextual fear conditioning (FC) [4]
Insulin detemir | about 1 hours | 3 to 14 | – | – | – | – | – | – | – | – | – | – | – | – | – | – | –
Insulin glulisine: insulin commercially available as Apidra® | 5 to 15 min | – | – | – | – | – | – | – | – | – | – | – | – | – | – | – | –
dulaglutide: GLP-1 agonist, commercially available as Trulicity® | – | – | 23.5 | 2.9 | 47.1 | 2.5 | 88.2 | 1.8 | did not ameliorate | 21.4 | 155.52 | 32.3 | 164.68 | 71.1 | 197.26 | did not ameliorate | did not ameliorate
